inhibition, melting point and IC50 data for four compounds are collected here from article PMC10538245, “Fragment merging approach for design, synthesis, and biological assessment of urea/acetyl hydrazide clubbed thienopyrimidine derivatives as GSK-3β inhibitors” (BMC Chemistry, 2023).

One data set deals with GSK-3β (Homo sapiens, UniProt P49841). The data set can be described thus: GSK-3β kinase inhibition, Z'-LYTE FRET assay (Thermo Fisher SelectScreen). The class given is biochemical. Particulars: for inhibition at 100 µM: 100 μM single dose.
Sequence of GSK-3β (P49841 whole entry): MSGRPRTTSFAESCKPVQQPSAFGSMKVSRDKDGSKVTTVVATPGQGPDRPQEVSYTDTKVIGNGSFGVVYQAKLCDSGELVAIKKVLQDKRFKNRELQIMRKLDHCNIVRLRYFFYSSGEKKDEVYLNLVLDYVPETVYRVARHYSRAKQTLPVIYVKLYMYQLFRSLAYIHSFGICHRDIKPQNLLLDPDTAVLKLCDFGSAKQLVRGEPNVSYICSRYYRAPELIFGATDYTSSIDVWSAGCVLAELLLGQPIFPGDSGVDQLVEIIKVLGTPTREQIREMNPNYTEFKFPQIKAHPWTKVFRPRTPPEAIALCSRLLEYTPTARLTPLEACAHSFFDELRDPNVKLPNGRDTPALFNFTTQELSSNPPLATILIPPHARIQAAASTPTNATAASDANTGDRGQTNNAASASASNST

Each structure is given as a SMILES string.

`O=C(Nc1ccc(Cl)c(C(F)(F)F)c1)Nc1ncnc2sc3c(c12)CCCC3` [9c, 1-(4-Chloro-3-(trifluoromethyl)phenyl)-3-(5,6,7,8tetrahydrobenzo[4,5]thieno[2,3-d]pyrimidin-4-yl)urea] yielded a melting point of 300 °C. Further, testing at 100 µM on GSK-3β gave an inhibition of 68%.
`Cc1cccc(NC(=O)Nc2ncnc3sc4c(c23)CCCC4)c1` [9b, 1-(5,6,7,8-Tetrahydrobenzo[4,5]thieno[2,3-d]pyrimidin-4-yl)-3-(m-tolyl)urea]: the melting point was determined as 300 °C. The compound also came in with an inhibition at 100 µM against GSK-3β of 70%. Moreover, the 50% inhibitory concentration (IC50) against GSK-3β (five doses 10 nM–100 µM) came to 28 µM.
Compound `S=C(Nc1ccccc1)Nc1ncnc2sc3c(c12)CCCC3` [9a, Phenyl-3-(5,6,7,8-tetrahydrobenzo [4,5]thieno[2,3-d)pyrimidin-4-yl) thiourea] displayed a melting point of 300 °C. The inhibition at 10 µM on GSK-3β (10 μM) is 17%. Also, the inhibition at 100 µM on GSK-3β was determined as 68%.
Turning to `O=C(COc1ncnc2sc3c(c12)CCCC3)NNC(=O)c1ccc([N+](=O)[O-])cc1` [6b], the melting point was in the range of 320 to 321 °C.
